Measured values reported in paper PMC2856764 (Human immunology, 2010).
Ends that are not written are not given here.

Assays:
Assay in all cases: biochemical
Type in all cases: binding
[1] = molecular target: HLA-B*3501 (Homo sapiens, UniProt P01889, A329T/A93T/A95T/C349S/D201E/D98Y/E176V/E187L/E204Q/E69T/I218V/K202T/L119I/Q94N/R155S/R180L/S121R/S35A/S48A/T118I/V127L/V306I/V36M/Y140S/Y91F)
[2] = molecular target: HLA-B*5301 (Homo sapiens, UniProt P01889, A329T/A93T/A95T/C349S/D201E/D98Y/E176V/E187L/E204Q/E69T/G107R/I218V/K202T/L105A/L119I/N104I/Q94N/R106L/R155S/R180L/S101N/S121R/S35A/S48A/T118I/V127L/V306I/V36M/Y140S/Y91F)
[3] = molecular target: HLA-B*0702 (Homo sapiens, UniProt P01889)
[4] = molecular target: HLA-B*5101 (Homo sapiens, UniProt P01889, A329T/A93T/A95T/C349S/D138N/D201E/D98Y/E187L/E204Q/E69T/G107R/I218V/K202T/L105A/L119W/N104I/Q94N/R106L/R155S/R180L/S101N/S121T/S35A/S48A/V306I/V36M/Y195H/Y91F)
[5] = molecular target: HLA-B*5401 (Homo sapiens, UniProt P01889, A329T/C349S/D138N/D201E/E176V/E187T/E204Q/E69G/I76V/K202T/L119W/R155S/R180L/S121T/S35A/S48A/V127L/V306I/V36M/Y140L)

LPRRSGAAGA [NP.172]
IC50 [1]: > 10000 nM | IC50 [2]: > 10000 nM | IC50 [3]: 2 nM | IC50 [4]: > 10000 nM | IC50 [5]: 47 nM
